Molecules are shown by their SMILES.

The record followed here is patent publication US20080003254A1, “SYSTEMS AND METHODS FOR DELIVERING A RAPAMYCIN ANALOG THAT DO NOT INHIBIT HUMAN CORONARY ARTERY ENDOTHELIAL CELL MIGRATION” (ABBOTT LABORATORIES, priority 2006, published 2008).

The subject of assay [1] is human coronary artery endothelial cells (hCaEC). The assay can be described thus: hCaEC migration in modified Boyden chambers. The conditions noted are these: for effect on full growth media induced hCaEC migration: 24 hours drug pretreatment in hCaEC full growth media, drug present during migration, FIG. 2; for effect on FBS-induced hCaEC migration: 24 hours drug pretreatment in growth media, migration in response to 5% FBS without additional growth factors, FIG. 3; for effect on hCaEC migration: FIG. 1A. The assay is classed as cell-based. On the procedure: (§1) The cancer chemotherapeutic, paclitaxel is hypothesized to directly interfere with microtubule homeostasis leading to the inhibition of EC migration and proliferation, which can lead to increased thrombosis. Reduced p70S6K activation alone will not result in anti-migratory activity. To examine the comparative effects of sirolimus, zotarolimus, dexamethasone, and paclitaxel on human coronary artery smooth muscle and endothelial cell migration, studies were conducted using modified Boyden chambers. As such, EC migration in response to HFGF, HEGF, VEGF, R^3-IGF-1 and FBS was determined using a modified Boyden chamber. Migration was induced using a variety of chemotactic stimuli including fetal bovine serum (FBS) in the presence and absence of growth factors as well as […] homodimer B (PDGF-BB). Anti-migratory activity was assessed after acute drug treatment and after pretreatment (24 hours) in basal or growth conditions.
(§2) Primary human coronary artery smooth muscle (hCaSMC) and endothelial cells (hCaEC) obtained from Cambrex (Walkersville, Md.) were routinely maintained in media recommended by the manufacturer. The hCaSMC were grown in a smooth muscle growth medium (“minimal media”, SmnBM, Cambrex) supplemented with the appropriate SingleQuot® to yield the complete medium containing 5% FBS, 0.1% hEGF, 0.2% hFGF-B, and 0.1% insulin (hCaSMC growth media). The hCaEC were maintained in the corresponding complete medium consisting of an endothelial cell growth medium (“minimal media”, EBM-2, Cambrex) supplemented with the appropriate SingleQuot® to yield the complete medium containing 5% FBS, 0.1% HEGF-B, 0.4% FGF, 0.1% R3-IGF, 0.04% hydrocortisone, 0.1% VEGF, and 0.1% ascorbic acid (hCaEC growth media). Cells were routinely propagated in the appropriate medium in humidified incubators maintained at 37° C. in an atmosphere containing 5% CO2. When necessary, each cell type was passed at 75% confluence.
(§3) Cells were maintained and used prior to 7 population doublings in all experiments. To expand cells prior to assay, frozen hCaSMC or hCaEC cells were thawed and cultured in T-162 flasks in smooth muscle growth medium (SmGM) or endothelial cell growth medium-2 (EGM-2), respectively, with the appropriate supplements. The cell medium was changed the next day and then every other day until cells reached 70-90% confluency. Growth medium was removed and cells were rinsed twice with PBS (without Ca^2+ and Mg^2+). To detach cells, sufficient trypsin/EDTA (3 ml) was added to cover the cell monolayer and the flask incubated at room temperature. After cells detached, trypsin was neutralized by addition of 6 ml complete medium. Cells were counted, transferred to a 50 ml tube and centrifuged. The cell pellet was re-suspended in growth medium to the appropriate cell density for experiments.
(§4) Cells (hCaEC or hCaSMC) were synchronized for 24 hours in basal media prior to all migration experiments. In acute studies, cells were collected, counted, and 200,000 hCaEC or 160,000 hCaSMC placed in the upper chambers of modified boyden chambers in 24 well plates (BD Biosciences). Plates contained microporous Fluoroblok membranes of 3.0 and 8.0 um for hCaEC and hCaSMC, respectively (Beckton Dickensen Biosciences). Chambers used in hCaEC migration experiments were coated with fibronectin (BD BioCoat). In pretreatment experiments, cells were synchronized in the presence of drug or treated for 24 hours in growth media after synchronization but prior to cell counting and migration. All cells were resuspended in basal media containing drugs or solvent (control) prior to migration. Cells were allowed to migrate in response to chemotatic agents for 22-24 hours. After migration, cells were stained with calcein-AM for 90 minutes and fluorescence determined using a plate reader capable of measuring fluorescence emitted by the bottom of the microporous filter. […]

Assay [2] relates to p70S6K (T389) phosphorylation. The experiment in a line: Western blot of p70S6K (T389) phosphorylation in hCaSMC. It is filed as cell-based, human. The settings on record: 300 nM drug for 36 hours after 24 hours synchronization; FIG. 7. Here is the method: To determine if inhibition of p70S6K was involved in serum-induced migration Western blot experiments were performed on hCaEC and hCaSMC treated using an experimental paradigm similar to those of the migration experiments. Cells were synchronized for 24 hours in basal media followed by drug treatment in growth media for 36 hours. The effects of drug treatment on p70S6K T389 phosphorylation in hCaEC are illustrated in FIG. 6A-6B.
The hCaSMC were synchronized for 24 hours in basal media and incubated in growth media with or without drugs (300 nM) for 36 hours […]. Membranes were probed with a rabbit anti-phospho-p70S6K (T389) monoclonal antibody (Cell Signaling). […] Furthermore, the anti-migratory activity of the mTOR antagonists is not likely to contribute to their anti-restenotic activity. Conversely, paclitaxel is a potent anti-migratory agent and this effect is likely to contribute to it's anti-restenotic activity.
Background: In western blotting, separated proteins are transferred to a membrane and probed.

Assay [3] relates to human coronary artery smooth muscle cells (hCaSMC). The experiment in a line: hCaSMC migration in modified Boyden chambers. The assay is classed as cell-based. The conditions noted are these: for effect on FBS-induced hCaSMC migration: 24 hours drug pretreatment in growth media, migration in response to FBS alone, FIG. 4; for effect on PDGF-BB stimulated hCaSMC migration: 24 hours pretreatment, PDGF-BB (25 ng/ml), FIG. 5. Here is the method:
as §1, §2, §3, §4

For assay [4], the system named is p70S6K (T389) phosphorylation. The experiment in a line: Western blot of p70S6K (T389) phosphorylation in hCaEC. The conditions noted are these: for effect on p70S6K T389 phosphorylation in hCaEC: 300 nM drug in growth media for 36 hours after 24 hours synchronization, FIG. 6A. The assay is classed as cell-based, human. Here is the method: Human Coronary Endothelial Cells (hCaEC, Cambrex) were seeded on 100 mm plastic dishes (1-3×10^5 cells per dish) and incubated at 37° C. with 5% CO2 in complete growth media containing hFGF, HEGF, VEGF, R^3-IGF-1 and 5% FBS (GM). Cells were allowed to grow until dishes were 30-40% confluent. Cells were synchronized by incubation in basal media without supplements (BM) for 24 h. After synchronization the BM was replaced with GM containing test compounds, DMSO and BSA (Experimental dish: GM containing 300 nM test compounds, 0.1% BSA; Positive control: GM containing 0.1% BSA and 0.1% DMSO; Negative control: BM containing 0.1 or 0.5% FBS, 0.1% BSA and 0.1% DMSO).
Cells were incubated for 24 or 36 hours at 37° C. with 5% CO2. After which dishes were 50-70% confluent. Dishes were rinsed with warm PBS to remove excess FBS and than placed on ice. Whole cell lysates were prepared by adding 150-200 ul of RIPA lysis buffer at 4° C. (50 mM Tris HCl pH 8, 150 mM NaCl, 1% NP-40, 0.5% sodium deoxycholate, 0.1% SDS, 2 mM PMSF, 1 mM sodium orthovanadate, and protease inhibitor cocktail, Santa Cruz Biotechnology) to the culture dishes and collected by scrapping the plate surface with a cell scrapper. Lysates were transferred to 1 ml eppendorf tubes and incubated on ice with vortexing for 30 min. Samples were than centrifuged for 8 min at 10000 rpm. […]
The total protein concentration of the samples was determined by a modification of the method of Bradford (Quick Start Bradford Microplate Standard Assay, Bio-Rad) with bovine γ-globulin as a standard.
Total volume of the loaded sample was 45 ul containing 15 ul of 3× sample buffer (Laemmli Sample Buffer, Bio Rad), and sample (30 ul) containing 25 to 50 ug of protein. […] Denaturated samples were separated in 4-15% gradient or 12% Ready Tris-HCl gels (Bio-Rad) in running buffer 25 mM Tris, pH 8.3, 192 mM glycine, 0.1% SDS at 150-180 V for 60-90 minutes and transferred to Hybond-ECL membrane (Amersham Biosciences) in 25 mM Tris, pH 8.3, 192 mM glycine, 20% methanol at 100 V for 1 hour. […]

Assay [5] has as its system pRb phosphorylation. The assay can be described thus: pRb phosphorylation (Western blot, hEC). It is filed as cell-based, human. The source says:
Western blots have shown the levels of specific proteins using antibodies to those proteins in response to the rapamycin analog (e.g., zotarolimus). […] It has been shown that paclitaxel and zotarolimus inhibit the activation of p70S6K.
Additionally, it has been shown that paclitaxel, but not zotarolimus or dexamethasone, inhibits migration of human coronary artery endothelial cells in vitro. […] Paclitaxel blocks migration, however, all agents reduce p70S6K (T389) phosphorylation. […] Dexamethasone and zotarolimus are not predicted to inhibit re-endothelialization of vascular legions, and dexamethasone may promote re-endothelialization of vascular lesions. In contrast, paclitaxel inhibits re-endothelialization by blocking endothelial cell and/or smooth muscle cell migration.

The mark [6] stands for this setting: acute drug exposure, no pretreatment, 5% FBS, 22 hour migration.

In the case of `CO[C@H]1C[C@@H]2CC[C@@H](C)[C@@](O)(O2)C(=O)C(=O)N2CCCC[C@H]2C(=O)O[C@H]([C@H](C)C[C@@H]2CC[C@@H](OCCO)[C@H](OC)C2)CC(=O)[C@H](C)/C=C(\C)[C@@H](O)[C@@H](OC)C(=O)[C@H](C)C[C@H](C)/C=C/C=C/C=C/1C` [everolimus], in assay [1], the “effect on full growth media induced hCaEC migration” value is recorded as “only paclitaxel inhibits”.
With `CC(=O)O[C@H]1C(=O)[C@@]2(C)[C@H]([C@H](OC(=O)c3ccccc3)[C@]3(O)C[C@H](OC(=O)[C@H](O)[C@@H](NC(=O)c4ccccc4)c4ccccc4)C(C)=C1C3(C)C)[C@]1(OC(C)=O)CO[C@@H]1C[C@@H]2O` [paclitaxel], in assay [2], the “effect on p70S6K T389 phosphorylation in hCaSMC” value is on record as “reduces p70S6K”. Further, in assay [3], the “effect on FBS-induced hCaSMC migration” value is listed as “significantly blocks”. Further, the “effect on PDGF-BB stimulated hCaSMC migration” value in assay [3] is on record as “inhibited migration”. The IC50 was found to be 87.4 ± 18 nM in assay [3] (Homo sapiens, acute drug exposure, no pretreatment, 5% FBS, 22 hour migration, read-out: IC50 of inhibition of hCaSMC migration) and 28.2 ± 3.4 nM in assay [1] (Homo sapiens, Endothelial cell, acute drug exposure, no pretreatment, migration induced by 5% FBS, 22 hour migration, mean±SEM, n=3, FIG. 1C, read-out: IC50 of inhibition of hCaEC migration). In addition, the Emax in assay [3] (Homo sapiens, acute drug exposure, no pretreatment, 5% FBS, 22 hour migration, read-out: maximal efficacy of inhibition of hCaSMC migration) turned out to be 86.9 ± 2.9%; in assay [1] (Homo sapiens, Endothelial cell, acute drug exposure, no pretreatment, 5% FBS, 22 hour migration, mean±SEM, n=3, read-out: maximal efficacy of inhibition of hCaEC migration), 96.8 ± 1.8%. The “effect on FBS-induced hCaEC migration” value in assay [1] is recorded as “significantly blocks”. In addition, the “effect on full growth media induced hCaEC migration” value in assay [1] is recorded as “inhibits”. For the same molecule, the “effect on p70S6K T389 phosphorylation in hCaEC” value in assay [4] is reported as “reduces T389 phosphorylation”.
In the case of `CO[C@H]1C[C@@H]2CC[C@@H](C)[C@@](O)(O2)C(=O)C(=O)N2CCCC[C@H]2C(=O)O[C@H]([C@H](C)C[C@@H]2CC[C@@H](O)[C@H](OC)C2)CC(=O)[C@H](C)/C=C(\C)[C@@H](O)[C@@H](OC)C(=O)[C@H](C)C[C@H](C)/C=C/C=C/C=C/1C` [sirolimus], in assay [1] (setting [6]), the “effect on hCaEC migration” value is recorded as “no effect”.
Turning to `CO[C@H]1C[C@@H]2CC[C@@H](C)[C@@](O)(O2)C(=O)C(=O)N2CCCC[C@H]2C(=O)O[C@H]([C@H](C)C[C@@H]2CC[C@H](n3cnnn3)[C@H](OC)C2)CC(=O)[C@H](C)/C=C(\C)[C@@H](O)[C@@H](OC)C(=O)[C@H](C)C[C@H](C)/C=C/C=C/C=C/1C` [zotarolimus], in assay [5], the “effect on pRb phosphorylation” value is “reduces pRb phosphorylation”. Further, in assay [2], the “effect on p70S6K T389 phosphorylation in hCaSMC” value is listed as “completely inhibit”. In assay [3], the “effect on FBS-induced hCaSMC migration” value was “did not significantly block” and the “effect on PDGF-BB stimulated hCaSMC migration” value was “inhibited migration”. Moreover, in assay [1], the “effect on FBS-induced hCaEC migration” value is given as “did not significantly block” and the “effect on full growth media induced hCaEC migration” value is given as “only paclitaxel inhibits”. Moreover, the “effect on hCaEC migration” value in assay [1] (setting [6]) is on record as “no effect”. The “effect on p70S6K T389 phosphorylation in hCaEC” value in assay [4] was “completely block”. For the same molecule, the “p70S6K T389 to actin ratio compared to growth controls (densitometry)” value in assay [4] (hCaEC, 300 nM drug, FIG. 6B) is “significant inhibition”.
